Experimental data taken from patent US20120255051A1, “HERBICIDE TOLERANT PLANTS” (priority 2009, published 2012).

Test system: Brassica plants comprising mutant AHAS alleles
Assay: Greenhouse post-emergence spraying (10 g a.i./ha): vigor scores
Format: in vivo, Brassica napus
Conditions: for vigor score Av, post-emergence (1, 2 and 3 weeks after treatment): 10 g a.i./ha
Method: In another experiment, the effect of combining AHAS full knockouts with AHAS missense herbicide tolerant alleles on tolerance to thiencarbazone-methyl pre-planting application and thiencarbazone-methyl post-emergence spraying was tested in the greenhouse. To this end, the Brassica plants identified in Example 1 and 2 were backcrossed two times with an elite parent line, and subsequently selfed twice to obtain homozygous plants (BC2S2). Treatment pre-planting was carried out on the soil just after sowing with a dose of 20 g a.i./ha of thiencarbazone methyl. For assessment of vigor scores, plants were evaluated on a scale of 1 to 9, where 1=dead, 3=poor, 6=some aberrant phenotype and 9=vigorous. The vigor scores are an average of the scores taken at 2, 3 and 4 weeks after treatment. Treatment post-emergence at the first leaf stage was carried out with a dose of 10 g a.i./ha of thiencarbazone-methyl. The vigor scores are an average of the scores taken 1, 2 and 3 weeks after the treatment. The average values (Av) and standard deviations (SD) of the vigor scores are represented in Table 6.

SMILES: COC(=O)c1csc(C)c1S(=O)(=O)NC(=O)n1nc(OC)n(C)c1=O [thiencarbazone-methyl, methyl 4-[(4,5-dihydro-3-methoxy-4-methyl-5-oxo-1H-1,2,4-triazol-1-yl)carbonylsulfamoyl]-5-methylthiophene-3-carboxylate]
- vigor score Av, post-emergence (1, 2 and 3 weeks after treatment) (AHAS1 +/+, AHAS3 +/+ (HETO108+HETO104 series)): 1.7
- vigor score Av, post-emergence (1, 2 and 3 weeks after treatment) (AHAS1 +/+, AHAS3 +/+ (HETO108+HETO111 series)): 1.7
- vigor score Av, post-emergence (1, 2 and 3 weeks after treatment) (AHAS1 +/+, AHAS3 +/+ (HETO112+HETO111 series)): 1.7
- vigor score Av, post-emergence (1, 2 and 3 weeks after treatment) (AHAS1 +/+, AHAS3 HETO104/HETO104): 1.8
- vigor score Av, post-emergence (1, 2 and 3 weeks after treatment) (AHAS1 +/+, AHAS3 HETO111/HETO111 (HETO108+HETO111 series)): 3.3
- vigor score Av, post-emergence (1, 2 and 3 weeks after treatment) (AHAS1 +/+, AHAS3 HETO111/HETO111 (HETO112+HETO111 series)): 3.1
- vigor score Av, post-emergence (1, 2 and 3 weeks after treatment) (AHAS1 HETO108/HETO108, AHAS3 +/+ (HETO108+HETO104 series)): 3.4
- vigor score Av, post-emergence (1, 2 and 3 weeks after treatment) (AHAS1 HETO108/HETO108, AHAS3 +/+ (HETO108+HETO111 series)): 3.3
- vigor score Av, post-emergence (1, 2 and 3 weeks after treatment) (AHAS1 HETO108/HETO108, AHAS3 HETO104/HETO104): 3.8
- vigor score Av, post-emergence (1, 2 and 3 weeks after treatment) (AHAS1 HETO108/HETO108, AHAS3 HETO111/HETO111): 4.7
- vigor score Av, post-emergence (1, 2 and 3 weeks after treatment) (AHAS1 HETO112/HETO112, AHAS3 +/+): 1.7
- vigor score Av, post-emergence (1, 2 and 3 weeks after treatment) (AHAS1 HETO112/HETO112, AHAS3 HETO111/HETO111): 3.6
- vigor score Av, post-emergence (1, 2 and 3 weeks after treatment) (Elite parent line treated): 1.8
- thiencarbazone-methyl tolerance of plants homozygous for a missense allele and a full knock-out allele, versus missense allele with other AHAS gene homozygous wild-type (post-emergence spraying, greenhouse): higher
